The test system of data set [1] is β-catenin/Tcf-4 luciferase activity. The data set can be described thus: β-catenin/Tcf-4 luciferase reporter assay (TOP-flash/FOP-flash) in HCT116. Format: cell-based. Particulars: normalized to Renilla, 24 h treatment. The source says:
(§1) FIGS. 1A-C. HI-B1, HI-B5 and HI-B9 inhibit beta-catenin/Tcf-4 luciferase activity in colon cancer cell lines. (A) Chemical structures of three compounds. (B-C) Effects of HI-B1, HI-B5 and HI-B9 on the β-catenin/Tcf-4 luciferase activity in HCT116 (B) and HT29 (C) colon cancer cell lines. […] Colon cancer cells were co-transfected with reporter genes harboring the β-catenin/Tcf binding site (TOP-flash) or a mutant β-catenin/Tcf binding site (FOP-flash), respectively, and the Renilla gene. The luciferase activity was normalized to Renilla activity.
(§2) Transient transfection was performed using jetPEI and assays to detect firefly luciferase and Renilla activities according to the manufacturer's manual (Promega). Briefly, cells were seeded onto 10-cm plates and co-transfected with 400 ng of the Renilla luciferase internal control gene and 4 μg of the TOP-flash luciferase reporter construct containing three tandem Tcf consensus binding sites upstream of luciferase cDNA, or the FOPflash luciferase reporter construct, a plasmid with mutated Tcf binding sites. After 16 h of transfection, cells were trypsinized and seeded onto 48-well plates, and cells were treated with respective chemicals for 24 h. Luciferase and Renilla activities were measured using their substrates.
On the technique in general: In a reporter assay the amount or activity of a reporter protein is the signal.

Data set [2] shares this test system. The data set can be described thus: β-catenin/Tcf-4 luciferase reporter assay (TOP-flash/FOP-flash) in HT29. It is filed as cell-based. Conditions: normalized to Renilla, 24 h treatment.
Text: as §1, §2

Data set [3] relates to HCT116 colon cancer cells. Put plainly: Soft agar assay, anchorage-independent growth, HCT116. Format: cell-based. As to the method:
(§3) FIG. 2. […] HCT116 and HT-29 colon cancer cells. Colony formation of two cell lines were inhibited by treatment of β-catenin inhibitor candidates. Cells (8×10^3/ml) were incubated with or without HI-B5 or HI-B9 compounds in 1 mL of 0.33% BME agar containing 10% FBS or in 3.5 mL of 0.5% BME agar containing 10% FBS. The cultures were maintained at 37° C. in a 5% CO2 incubator for 7 days, after which the cell colonies were counted under a microscope.
(§4) Cells (8×10^3 per well) suspended in Basal Medium Eagle (BME) supplemented with 10% FBS were added to 0.3% agar with different doses of chemicals in a top layer over a basal layer of 0.6% agar. The cultures were maintained at 37° C. in a 5% CO2 incubator for 2 wk and then colonies were counted under a microscope using the Image-Pro Plus Software (v.4) program (Media Cybernetics).

Another data set relates to HT-29 colon cancer cells. Put plainly: Soft agar assay, anchorage-independent growth, HT29. It is filed as cell-based. Here is the method: as §3, §4
In data set [4] the test system is target genes expressed by β-catenin/Tcf-4 complex. Put plainly: Quantitative real-time PCR of β-catenin/Tcf-4 target genes. Format: cell-based. Conditions: HI-B5 40 μM or HI-B9 20 μM; 12 hr of treatment. Here is the method:
FIGS. 3A-D. HI-B5 and HI-B9 reduce mRNA expression level of target genes expressed by β-catenin/Tcf-4 complex. (A) axin2, (B) cyclin D1, (C) c-myc and (D) pparδ mRNA expression was reduced by HI-B5 40 μM or HI-B9 20 μM treatment. Esculetin was used as a positive control. Expression level of each gene was detected after 12 hr of chemical treatment.
RNA isolation was performed according to the Trizol reagent protocol (catalog #15596-018, Invitrogen). The concentration and the purity of RNA was determined by measuring the absorbance at 260/280 nm. cDNA was synthesized using 1 μg of RNA and the amfiRevert Platinum cDNA synthesis master mix (GenDEPOT, Cat. No. R5600). For real time PCR, 1 μl of the synthesized cDNA was loaded into 1 well of a 96-well plate for detection of specific target genes using the Power SYBR Green PCR master mix (ABsystems, #4367659).
On the technique in general: In qPCR the cycle at which signal appears reflects the starting amount.

In the next data set the test system is β-catenin. Put plainly: Ex vivo pull-down with compound-conjugated Sepharose 4B beads and colon cancer cell lysate: β-catenin. Format: binding. Conditions: colon cancer cell lysates; compound-conjugated Sepharose 4B beads. As to the method:
(§5) Protein extracts (500 μg) of colon cancer cells were mixed with Sepharose-4B beads (as a negative control) or chemical-conjugated Sepharose 4B beads (100 μl) in reaction buffer. After being washed five times with buffer, the proteins were visualized by Western blot analysis.

The next data set has as its target T1, Tcf-4 (Homo sapiens, UniProt Q9NQB0).
T1 construct: Protein extracts (500 μg) of colon cancer cells were mixed with Sepharose-4B beads; endogenous in cells; host or cells: HCT116 and HT29 cell lysate
The data set can be described thus: Ex vivo pull-down with compound-conjugated Sepharose 4B beads and colon cancer cell lysate: Tcf-4. It is filed as binding. Conditions: HCT116 and HT29 cell lysate. As to the method:
as §5

The next data set relates to β-catenin/Tcf-4 complex. The data set can be described thus: Immunoprecipitation assay of β-catenin/Tcf-4 complex in colon cancer cells. Format: cell-based. Here is the method:
Colon cancer cells treated or not treated with low or high concentrations of compounds for 24 h were disrupted with lysis buffer (50 mmol/L Tris, pH 8, 250 mmol/L NaCl, 5 mmol/L EDTA, 0.1% NP-40, 10% glycerol, and 1× protease inhibitor cocktail). Cell lysates were cleared by centrifugation, and immunoprecipitations were performed by incubating overnight with anti-β-catenin. Agarose beads were then added and samples incubated for 3 h at 4° C. After removing unbound proteins by washing five times with lysis buffer, bound proteins were harvested by boiling in sample buffer, and resolved by 8% SDS-PAGE. β-Catenin and Tcf-4 proteins were visualized using a chemiluminescence reagent (Amersham).

The target in data set [5] is T2, Tcf-4/β-catenin complex (Homo sapiens, UniProt P35222).
T2 construct: expressed in transfected cells; host or cells: 293T cells
T2 sequence (P35222 2-781): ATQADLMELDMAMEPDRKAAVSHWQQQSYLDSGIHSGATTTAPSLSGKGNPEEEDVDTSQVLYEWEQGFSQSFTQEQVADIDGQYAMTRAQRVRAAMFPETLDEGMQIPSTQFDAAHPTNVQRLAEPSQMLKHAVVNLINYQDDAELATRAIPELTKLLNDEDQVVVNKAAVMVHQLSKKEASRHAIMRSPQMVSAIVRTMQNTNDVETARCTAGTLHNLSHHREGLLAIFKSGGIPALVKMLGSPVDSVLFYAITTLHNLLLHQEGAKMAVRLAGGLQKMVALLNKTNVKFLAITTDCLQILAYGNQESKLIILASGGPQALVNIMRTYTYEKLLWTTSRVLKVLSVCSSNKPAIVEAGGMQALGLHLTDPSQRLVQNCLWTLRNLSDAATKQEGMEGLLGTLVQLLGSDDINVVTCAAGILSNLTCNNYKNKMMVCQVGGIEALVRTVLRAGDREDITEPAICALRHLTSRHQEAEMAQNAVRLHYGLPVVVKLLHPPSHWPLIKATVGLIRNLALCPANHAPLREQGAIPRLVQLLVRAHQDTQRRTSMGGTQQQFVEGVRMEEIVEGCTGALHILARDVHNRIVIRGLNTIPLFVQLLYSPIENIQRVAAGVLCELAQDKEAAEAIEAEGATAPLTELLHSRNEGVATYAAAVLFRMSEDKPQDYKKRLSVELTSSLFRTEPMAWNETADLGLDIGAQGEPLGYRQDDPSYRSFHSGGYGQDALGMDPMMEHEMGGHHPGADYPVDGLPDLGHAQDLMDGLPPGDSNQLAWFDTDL
The data set can be described thus: Immunoprecipitation and Western blotting in 293T cells transfected with wildtype or mutant β-catenin. It is filed as cell-based. Conditions: 293T cells transfected with wildtype β-catenin. Here is the method: (§6) We used computational biology technology and medicinal chemistry to identify potential inhibitors of β-catenin. […] To further confirm binding, wildtype or mutant β-catenin was transfected into 293T cells and immunoprecipitation and Western blotting were performed. […] Overall, esculetin appears to be an effective, non-toxic inhibitor of the Tcf-4/β-catenin complex.

The test system of data set [6] is Tcf-4/β-catenin complex. Described as above. Conditions: 293T cells transfected with mutant β-catenin. It is filed as cell-based. As to the method:
as §6

For data set [7], the system named is xenograft colon cancer tumor. The data set can be described thus: Xenograft colon cancer tumor growth in nude mice. Format: in vivo.

The source of these data is US9616047B2, “Inhibitors of beta-catenin in treatment of colorectal cancer” (Regents of the University of Minnesota, priority 2014, dated 2017).

“Also recorded” adds a separate entry of the source.

T1 sequence (Q9NQB0 whole entry): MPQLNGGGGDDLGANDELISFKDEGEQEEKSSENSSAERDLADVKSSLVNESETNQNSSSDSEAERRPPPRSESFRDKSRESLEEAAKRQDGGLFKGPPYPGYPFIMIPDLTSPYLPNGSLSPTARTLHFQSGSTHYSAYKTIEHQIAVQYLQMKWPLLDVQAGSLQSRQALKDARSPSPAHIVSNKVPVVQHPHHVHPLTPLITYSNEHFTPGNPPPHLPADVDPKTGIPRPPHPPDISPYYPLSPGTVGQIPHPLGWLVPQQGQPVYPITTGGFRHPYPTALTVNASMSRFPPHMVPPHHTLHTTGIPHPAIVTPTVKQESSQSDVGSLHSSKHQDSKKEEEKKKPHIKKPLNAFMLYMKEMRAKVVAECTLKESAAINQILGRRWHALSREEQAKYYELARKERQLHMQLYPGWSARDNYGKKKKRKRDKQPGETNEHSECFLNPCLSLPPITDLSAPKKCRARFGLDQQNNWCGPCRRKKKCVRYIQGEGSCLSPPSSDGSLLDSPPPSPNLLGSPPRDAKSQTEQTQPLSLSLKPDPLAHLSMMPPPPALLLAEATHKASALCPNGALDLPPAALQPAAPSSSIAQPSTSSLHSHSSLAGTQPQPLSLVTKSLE

With `CC1=C(/C=C/C(=O)/C=C2/C(=O)Nc3ccc(F)cc32)C(C)(C)CCC1` [HI-B5], the “transcriptional activity of β-catenin/Tcf-4 (luciferase activity)” value in data set [1] is given as “suppress transcriptional activity of the β-catenin/Tcf-4 in a dose-dependent manner”. Moreover, the “transcriptional activity of β-catenin/Tcf-4 (luciferase activity)” value in data set [2] is recorded as “suppress transcriptional activity of the β-catenin/Tcf-4 in a dose-dependent manner”. Further, the “anchorage-independent growth (colony formation in soft agar)” value (“anchorage-independent growth” below) in [3] is reported as “suppress anchorage-independent growth”. In addition, the “anchorage-independent growth” value in the data set on HT-29 colon cancer cells is listed as “suppress anchorage-independent growth”. Also, in data set [4], the “axin2 mRNA expression” value is given as “reduced”, the “c-myc mRNA expression” value is recorded as “reduced”, the “cyclin D1 mRNA expression” value is “reduced” and the “pparδ mRNA expression” value is listed as “reduced”. In addition, in the data set on β-catenin, the “binding to β-catenin (ex vivo pull-down)” value was “verified the binding; also recorded: can interact with β-catenin”. Also, the “binding to Tcf-4 (ex vivo pull-down)” value at Tcf-4 was “not Tcf-4”. Further, the “Tcf-4 expression level after chemical treatment” value with β-catenin/Tcf-4 complex (HCT116) is on record as “not altered”. Further, the “disruption of β-catenin/Tcf-4 complex (immunoprecipitation)” value with β-catenin/Tcf-4 complex (HCT116 cell line, dose-dependent) is “caused disruption of β-catenin/Tcf-4 complex”.

For `CC1(C)CCC(C)(C)c2cc(C(=O)CC3(O)C(=O)Nc4ccc(F)cc43)ccc21` (stereo not drawn) [HI-B9], the “transcriptional activity of β-catenin/Tcf-4 (luciferase activity)” value in data set [1] is given as “suppress transcriptional activity of the β-catenin/Tcf-4 in a dose-dependent manner”. Further, in [2], the “transcriptional activity of β-catenin/Tcf-4 (luciferase activity)” value was “suppress transcriptional activity of the β-catenin/Tcf-4 in a dose-dependent manner”. The “anchorage-independent growth” value in data set [3] is “suppress anchorage-independent growth”. In the data set with HT-29 colon cancer cells, the “anchorage-independent growth” value was “suppress anchorage-independent growth”. In data set [4], the “axin2 mRNA expression” value is “reduced”, the “c-myc mRNA expression” value is recorded as “reduced”, the “cyclin D1 mRNA expression” value is reported as “reduced” and the “pparδ mRNA expression” value is listed as “reduced”. Moreover, in the data set on β-catenin, the “binding to β-catenin (ex vivo pull-down)” value is “verified the binding”.

Take `O=c1ccc2cc(O)c(O)cc2o1` [esculetin]: the “transcriptional activity of β-catenin/Tcf-4 (luciferase activity)” value in data set [1] was “inhibited transcriptional activity of the β-catenin/Tcf complex”. The “binding to β-catenin (ex vivo pull-down)” value with β-catenin was “verified the binding”. For the same molecule, the “disruption of nuclear Tcf-4/β-catenin complex” value in the data set with β-catenin/Tcf-4 complex (colon cancer cells) was “disrupted the nuclear Tcf-4/β-catenin complex in a dose-dependent manner”. Also, the “disruption of wildtype Tcf-4/β-catenin complex” value on Tcf-4/β-catenin complex [5] is recorded as “effectively disrupted”. The “effect on mutant Tcf-4/β-catenin complex” value in the data set with Tcf-4/β-catenin complex [6] is recorded as “had no effect”. Besides, in [7] (nude mice), the “c-Myc and cyclin D1 expression in tumors” value is recorded as “decreases”; the tumor size result is listed as “significantly smaller”; the “xenograft colon cancer tumor growth” value is recorded as “effectively inhibited xenograft colon cancer tumor growth”. Moreover, the toxicity entry in data set [7] (overall statement) was “non-toxic”.
